Where two headings read alike, the source gives them in different places. No end group written: not given here.
Key:
[1] = test system: αLβ2-mediated adhesion of Mn++-activated H9 cells to ICAM-1; experiment: Cell adhesion assay: adhesion of Mn2+-activated H9 cells to ICAM-1-Fc; assay type: cell-based, human; conditions: for inhibition of cell adhesion to ICAM-1 (in words): Mn++-activated H9 cells, cell-permeable fusion peptide; for blocking of adhesion (in words): at 100 μM
Protocol: The human T lymphoma cell line H9, was purchased from the American Type Culture Collection, Rockville, Md. It was cultured at 37° C. in 1640 medium supplemented with 50 U/ml penicillin, 50 μg/ml streptomycin, 200 μg/ml L-glutamine, 10% (v/v) FCS and 0.05 mM β-mercaptoethanol. All synthetic peptides were custom made by Mimotopes Pty Ltd., Victoria, Australia. The β2cyt peptides were N-terminally fused during synthesis to biotinylated penetratin (RQIKIWFQNRRMKWKK—Seq ID No. 22) or to a biotinylated D-isomeric form of an R9 polymer (Seq ID No. 32) to render them cell-permeable.
The soluble ICAM-1-Fc chimera was produced using the glutamine synthetase gene amplification system. The extracellular portions of human ICAM-1 fused to the Fc domain of human IgG1 were expressed from the pEE14 vector (kindly provided by Dr Chris Bebbington, Celltech Ltd, UK) in CHO K1 cells as described previously (18).
Lab-Tek 16-well glass slides (Nunc) or flat-bottom 96-well plates (Nunc Maxisorp) were coated overnight at 4° C. with purified ICAM-1-Fc at 10 μg/well in 100 μl of 0.1 M carbonate buffer (pH 9.5). After washing plates were blocked with 100% heat-inactivated FCS, and washed with Hanks balanced salt solution (HBSS) containing 10 mM Hepes, 2 mM Ca^2+ and 2 mM Mn^2+. H9 cells were either left unlabeled or labeled with the fluorescent dye chloromethyl fluorescein diacetate (CMFDA; Molecular Probes, Oregon). For peptide inhibition studies, H9 cells were preincubated with peptide in serum-free medium for 30 min at 37° C. and activated by suspension in an Mn^2+-containing buffer (HBSS: 10 mM Hepes containing 2 mM Ca^2+, 2 mM Mn^2+, and 2% FCS). Human IgG1 Ab (10 μg/ml; Sigma) was added to prevent nonspecific capture of cells to the Fc portion of […]. Cells were checked for viability by trypan blue exclusion, added to wells (10^6cells/well), and incubated for 30 min at 37° C. in a humidified atmosphere of 5% CO2. Non-adherent cells were removed by inverse centrifugation of the plates at 70×g for 5 min followed by gentle pipette washing. The number of unlabeled adherent cells was determined by counting the number of adherent cells in four independent fields at 100× magnification under an inverted microscope. The fluorescence of CMFDA-labeled adherent cells was measured using a VICTOR1420 multilabel counter (Wallac). Representative data are reported as mean±SD of two independent experiments performed in duplicate.

[2] = at 25 μM, Mn++-activated H9 cells to ICAM-1, fused to r9
[3] = at 50 μM, Mn++-activated H9 cells to ICAM-1, fused to r9
[4] = at 6 μM, H9 cells to ICAM-1, r9 fusion

## KALIHLSDLREY
H9 cells
  uptake of penetratin fusion peptide into cells: readily taken up

## NPLFKSATTT (not fully specified (N-terminus); also: biotinylated r9 carrier, attachment not given here) [β2cyt peptide fused to r9 (biotinylated D-isomeric nine-arginine polymer) to render it cell-permeable]
[1]
  inhibition of cell adhesion to ICAM-1 (in words): active
[1]; [2]
  inhibition of adhesion: ~50%
[1]; [3]
  inhibition of adhesion: ~80%

## VMNPKFAES (not fully specified (N-terminus); also: biotinylated r9 carrier, attachment not given here) [β2cyt peptide fused to r9 (biotinylated D-isomeric nine-arginine polymer) to render it cell-permeable]
[1]
  inhibition of cell adhesion to ICAM-1 (in words): active
[1]; [2]
  inhibition of adhesion: ~50%
[1]; [3]
  inhibition of adhesion: ~80%

## YRRFEKEKLKSQWNND
H9 cells; human cell line H9, biotinylated peptide detected with streptavidin-FITC
  uptake of penetratin fusion peptide into cells: readily taken up

## r9-NPKF: core talin-binding motif of β2cyt synthesized as fusion with the r9 carrier peptide (not fully specified (N-terminus); printed as r9-NPKF)
[1]; [4]
  inhibition of adhesion: 82%
[1]; H9 cells to ICAM-1, r9 fusion
  blocking of adhesion (in words): almost completely blocked adhesion

## r9-NPLFKS: β2cyt hexamer synthesized as fusion with the r9 carrier peptide (not fully specified (N-terminus); printed as r9-NPLFKS)
[1]; [4]
  inhibition of adhesion: 24%
[1]; H9 cells to ICAM-1, r9 fusion
  blocking of adhesion (in words): almost completely blocked adhesion

— patent US20090118174A1, “Novel peptides and methods for the treatment of inflammatory disorders” (Auckland Uniservices Limited, priority 2005, published 2009)
